In patent US6746663B2, “Porphyrin compounds” (Photochemical Co., Ltd., priority 1999, dated 2004):
Counter-ions that a name gives are not always drawn.

Tests used:
[1] = Photosensitizing oxidation reaction using Dansyl methionine; conditions: for Degree of Photo Reaction (reaction end time): 0.1 μM photosensitizer, 10 μM Dansyl methionine in chloroform, halogen lamp irradiation, time until Dansyl methionine disappeared on TLC, smaller = stronger
Protocol: (§1) Albumin test is a test method for evaluating the affinity to cancerous tissues, in which a chlorin derivative is examined on the change in ultraviolet (UV) absorption spectrum in a mixture form with albumine, and dancyl methionine test is also a convenient test method for evaluating the strength of the photoreactivity by thin layer chromatography (TLC) or high performance liquid chromatography (HPLC) (see Japanese Patent Application Laid-open No. 5-97857).
To 1 ml of chloroform, 10 μM of Dansyl methionine, a substrate, was added, and then 0.1 μM of the photosensitizer of the present invention [sodium salt of NOEt-P-Asp(I)] was further added. Laser irradiation was conducted using Cold Spot PICL-SX (Nippon P.I. Co., Ltd.) which is halogen lamp, has 150 W wave length and 80,00 Lux, under stirring. The reaction solution was spotted at every minute on TLC plate (Kieselgel 60F254), and developed with chloroform methanol (3:2), then Dansyl methionine and its oxide (Dansylmethionine sulfoxide) were confirmed using UV lamp (254 nm). The time that Dansylmethionine disappeared completely on TLC plate was stated as the end of the reaction time, and photo oxidation reaction of photosensitizer was compared.
Photofrin II (Trade Mark) was used as a control of photosensitizer of present invention.

[2] = system: tumor tissues of colon cancer Colon 26; assay: Evaluation on tissue accumulability (cancer/organ concentration by surface fluorescence); type: in vivo; conditions: 10 mg/kg intravenous, 3H/He mice bearing Colon 26, 1 to 24 hours after administration, FIG. 2
Protocol: In the graph, the curve No.1 represents the result of cancer/brain, the curve No.2 represents the result of cancer/liver, the curve No.3 represents the result of cancer/lung, the curve No.4 represents cancer/muscle, the curve No.5 represents cancer/kidney, and the curve No.6 represents cancer/plasma.
3H/He mice (5 per group) implanted with tumor tissues of colon cancer Colon 26 for 14 to 21 days, were given an intravenous injection of sodium salt of each of NOEt-P-Asp(I) (10 mg/kg for each mouse) which had been diluted with a distilled water for injection. The blood samples were collected and the organs bearing the tumor tissue were extirpated after the injection, irradiated with N2-pulsed laser (N2, wavelength: 337 nm, 2 ns, 400-1,000 nm), and the excited fluorescent spectrum was measured. The wavelength in the range of 600 to 900 nm was examined based on the peak wavelength of NADH at 470 nm (determination of the distribution of the test compound in the organ by the surface fluorescence method using N2-pulsed laser spectrophotometry). That is, the distributed concentration of sodium salt of NOEt-P-Asp(I) in cancer/organ (or plasma) ratio was determined by calculating the peak wavelength at 670 nm when the peak wavelength at 470 nm was considered as the basic value, 1.

albumin = albumin (Homo sapiens, UniProt P02768); assay: Albumin test (change in UV absorption spectrum in mixture with albumin); type: binding
albumin, sequence (P02768 25-609, species assumed): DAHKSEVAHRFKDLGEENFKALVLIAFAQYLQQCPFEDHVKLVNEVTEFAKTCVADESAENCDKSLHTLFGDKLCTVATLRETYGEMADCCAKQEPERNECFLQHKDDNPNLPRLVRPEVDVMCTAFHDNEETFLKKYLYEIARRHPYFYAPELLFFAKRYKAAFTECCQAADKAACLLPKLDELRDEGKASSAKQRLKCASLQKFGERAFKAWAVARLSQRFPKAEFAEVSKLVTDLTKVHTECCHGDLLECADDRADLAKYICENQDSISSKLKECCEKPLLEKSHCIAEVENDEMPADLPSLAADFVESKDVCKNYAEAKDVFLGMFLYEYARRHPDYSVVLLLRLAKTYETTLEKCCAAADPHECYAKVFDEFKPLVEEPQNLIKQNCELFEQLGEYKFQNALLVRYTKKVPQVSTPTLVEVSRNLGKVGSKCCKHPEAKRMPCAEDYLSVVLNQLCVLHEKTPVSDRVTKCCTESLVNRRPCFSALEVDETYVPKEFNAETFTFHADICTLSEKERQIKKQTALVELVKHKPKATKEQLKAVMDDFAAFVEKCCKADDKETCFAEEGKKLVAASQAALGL
Text: as §1

| Compound | Degree of Photo Reaction (reaction end time) [1] | accumulability to cancerous tissues (cancer/organ or plasma concentration ratio) [2] | photosensitivity (strength of photoreactivity) ([1]; dancyl methionine test, result in words) | transferability to cancerous tissues (affinity to cancerous tissues) (albumin) |
| --- | --- | --- | --- | --- |
| 13,17-bis[(1,2-dicarboxyethyl)carbamoylethyl]-8-ethenyl-2-hydroxy-3-etoxyiminoethylidene-2,17,12,18-tetramethyl-porphyrin [NOEt-P-Asp(II) Na salt] | 4 min | – | – | – |
| C=Cc1c(C)c2cc3nc(cc4[nH]c(cc5nc(cc1[nH]2)C(C)(O)C5=CC=NOCC)c(C)c4CCC(=O)NC(CC(=O)O)C(=O)O)C(CCC(=O)NC(CC(=O)O)C(=O)O)=C3C (centres unmarked) [NOEt-P-Asp(I) Na salt, 13,17-bis[(1,2-dicarboxylethyl)carbamoylethyl]-3-ethenyl-7-hydroxy-8-ethoxyiminoethylidene-2,7,12,18-tetramethyl-porphyrin] | 4 min | much higher accumulability to cancerous tissues | – | – |
| C=Cc1c(C)c2cc3nc(cc4[nH]c(cc5nc(cc1[nH]2)C(C)(O)C5=CC=NOCC)c(C)c4CCC(=O)NC(CC(=O)O)C(=O)O)C(CCC(=O)NC(CC(=O)O)C(=O)O)=C3C (centres unmarked) [NOEt-P-Asp(I), 13,17-bis[(1,2-dicarboxylethyl)carbamoylethyl]-3-ethenyl-7-hydroxy-8-ethoxyiminoethylidene-2,7,12,18-tetramethyl-porphyrin] | – | – | strong photosensitivity | excellent transferability to cancerous tissues |
